# Measurements reported in patent US7173004B2, “Macrocyclic isoquinoline peptide inhibitors of hepatitis C virus” (Bristol-Myers Squibb Company, priority 2003, dated 2007).
# Tested on: HCV replicon (HCV 1b-377-neo replicon cells, Huh7)
# Assay: HCV replicon cell-based FRET assay
# Settings: Hepatitis C virus, Huh-7
# Outline: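 Huh7 cells carrying a neo-selectable genotype 1b HCV replicon (~3,000 RNA copies/cell) were seeded at 1.5×10^4 cells/well and treated 4 days at 37 °C (0.5% DMSO final). CC50 was read by alamar Blue (4 h, ex 530/em 580 nm). Lysates with 10 μM EDANS/DABCYL NS3 protease FRET peptide were read kinetically (ex 340/em 490 nm, 25 °C, ~15 min) for % inhibition.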
compound,measurement,value
COc1ccc2c(OC3CC4C(=O)NC5(C(=O)NS(=O)(=O)C6CC6)CC5C=CCOCCCC(NC(=O)N5CCCC5)C(=O)N4C3)nc(-c3ccccc3)cc2c1 (stereo not drawn) [Compound 100],EC50,< 0.05 µM
COc1ccc2c(OC3CC4C(=O)NC5(C(=O)NS(=O)(=O)C6CC6)CC5C=CCOCCCC(NC(=O)OC5CCCC5)C(=O)N4C3)nc(-c3ccccc3)cc2c1 (stereo not drawn) [Compound 99],EC50,< 0.05 µM
COc1ccc2c(OC3CC4C(=O)NC5(C(=O)NS(=O)(=O)C6CC6)CC5C=CCCCCCC(NC(=O)NC(C)(C)C)C(=O)N4C3)nccc2c1 (stereo not drawn) [Compound 135],EC50,< 0.05 µM
COc1ccc2c(OC3CC4C(=O)NC5(C(=O)NS(=O)(=O)C6CC6)CC5C=CCCCOCC(NC(=O)OC(C)C)C(=O)N4C3)nc(-c3ccc(N(C)C)cc3)cc2c1 (stereo not drawn) [Compound 109],EC50,< 0.05 µM
COc1ccc2c(OC3CC4C(=O)NC5(C(=O)NS(=O)(=O)C6CC6)CC5C=CCCCSC(C)(C)C(NC(=O)NC5CCCC5)C(=O)N4C3)nccc2c1 (stereo not drawn) [Compound 82],EC50,0.05 to 0.5 µM
COc1ccc2c(OC3CC4C(=O)NC5(C(=O)NS(=O)(=O)C6CC6)CC5C=CCCCOCC(NC(=O)OC5CCCC5)C(=O)N4C3)nccc2c1 (stereo not drawn) [Compound 90],EC50,< 0.05 µM
COc1ccc2c(OC3CC4C(=O)NC5(C(=O)NS(=O)(=O)C6CC6)CC5C=CCCCOCC(NC(=O)OC(C)C)C(=O)N4C3)nc(-c3ccccc3)cc2c1 (stereo not drawn) [Compound 96],EC50,< 0.05 µM
COc1ccc2c(OC3CC4C(=O)NC5(C(=O)NS(=O)(=O)C6CC6)CC5C=CCCCOCC(NC(=O)NC(C)(C)C)C(=O)N4C3)nc(-c3ccc(N(C)C)cc3)cc2c1 (stereo not drawn) [Compound 108],EC50,< 0.05 µM
COc1ccc2c(OC3CC4C(=O)NC5(C(=O)NS(=O)(=O)C6CC6)CC5C=CCOCCCC(NC(=O)Nc5ccc(C#N)cc5)C(=O)N4C3)nc(-c3ccccc3)cc2c1 (stereo not drawn) [Compound 105],EC50,0.05 to 0.5 µM
CC(C)(C)OC(=O)N[C@H]1CN(S(C)(=O)=O)CCC/C=C\[C@@H]2C[C@@]2(C(=O)NS(=O)(=O)C2CC2)NC(=O)[C@@H]2C[C@@H](Oc3nccc4ccccc34)CN2C1=O [Compound 153],EC50,0.05 to 0.5 µM
O=C(NC1CCCC1)NC1CCCCCC=CC2CC2(C(=O)NS(=O)(=O)C2CC2)NC(=O)C2CC(Oc3nccc4ccccc34)CN2C1=O (stereo not drawn) [Compound 127],EC50,< 0.05 µM
COc1ccc2c(OC3CC4C(=O)NC5(C(=O)NS(=O)(=O)C6CC6)CC5C=CCCCCCC(NC(=O)OC(C)(C)C)C(=O)N4C3)nccc2c1OC (stereo not drawn) [Compound 134],EC50,< 0.05 µM
COc1ccc2c(OC3CC4C(=O)NC5(C(=O)NS(=O)(=O)C6CC6)CC5C=CCOCCCC(NC(=O)OC(C)(C)C)C(=O)N4C3)nc(-c3ccc(N(C)C=O)cc3)cc2c1 (stereo not drawn) [Compound 114],EC50,< 0.05 µM
COc1ccc2c(OC3CC4C(=O)NC5(C(=O)NS(=O)(=O)C6CC6)CC5C=CCCCSC(C)(C)C(N)C(=O)N4C3)nccc2c1 (stereo not drawn) [Compound 83],EC50,5 to 50 µM
CN1CCC/C=C\[C@@H]2C[C@@]2(C(=O)NS(=O)(=O)C2CC2)NC(=O)[C@@H]2C[C@@H](Oc3nccc4ccccc34)CN2C(=O)[C@@H](NC(=O)OC(C)(C)C)C1 [Compound 147],EC50,< 0.05 µM
COc1ccc2c(OC3CC4C(=O)NC5(C(=O)NS(=O)(=O)C6CC6)CC5C=CCCCOCC(NC(=O)N5CCCC5)C(=O)N4C3)nc(-c3ccccc3)cc2c1 (stereo not drawn) [Compound 93],EC50,< 0.05 µM
COc1ccc2c(OC3CC4C(=O)NC5(C(=O)NS(=O)(=O)C6CC6)CC5C=CCCCSC(C)(C)C(NC(=O)NC(C)(C)C)C(=O)N4C3)nccc2c1 (stereo not drawn) [Compound 81],EC50,0.05 to 0.5 µM
CCC1(S(=O)(=O)NC(=O)C23CC2C=CCCCSCC(NC(=O)OC(C)(C)C)C(=O)N2CC(Oc4nccc5cc(OC)ccc45)CC2C(=O)N3)CC1 (stereo not drawn) [Compound 121],EC50,< 0.05 µM
O=CNC1CCCCCC=CC2CC2(C(=O)NS(=O)(=O)C2CC2)NC(=O)C2CC(Oc3nccc4ccccc34)CN2C1=O (stereo not drawn) [Compound 119],EC50,0.05 to 0.5 µM
CC(C)(C)CC(C)(C)NC(=O)NC1CCCCCC=CC2CC2(C(=O)NS(=O)(=O)C2CC2)NC(=O)C2CC(Oc3nccc4ccccc34)CN2C1=O (stereo not drawn) [Compound 129],EC50,< 0.05 µM
COc1ccc2c(OC3CC4C(=O)NC5(C(=O)NS(=O)(=O)C6CC6)CC5C=CCCCOCC(NC(=O)OC(C)C)C(=O)N4C3)nccc2c1 (stereo not drawn) [Compound 89],EC50,< 0.05 µM
